Reference: article PMC6913127, “Structures of MERS1, the 5′ processing enzyme of mitochondrial mRNAs in Trypanosoma brucei” (RNA, 2020)
No end group written: not given here.

How the values were obtained:
[1] = test system: T. brucei MERS1 (residues 37–395); test: Fluorescence polarization (FP) RNA/DNA binding to MERS1; parameters: species or system Trypanosoma brucei; details: 25 mM Tris HCl pH 7.5, 5% (v/v) glycerol, 50 mM NaCl; for Binding to MERS1, result in words: 25°C, 1 nM fluoresceinated RNA or DNA
From the text: We next used FP binding studies to assess RNA binding by purified MERS1. […] We next probed the importance of specific nucleotides in the RNA binding site by performing FP studies on mutant forms of the RNA site.
For structural studies, the nucleotides encoding residues 37–395 of MERS1 were cloned into pET15b between the BamHI and NdeI restriction sites. E. coli C41(DE3) cells were transformed with the expression plasmid and protein expression was induced by addition of isopropyl β-D-1-thiogalactopyranoside (IPTG) to a final concentration of 0.5 mM for 4 h at 37°C when the cells had reached an A600 of 0.4–0.6. The cells were reconstituted in 25 mM Tris HCl pH 7.5, 300 mM NaCl, 5% glycerol, 0.5 mM β-mercaptoethanol and lysed with a microfluidizer. The expressed MERS1 protein was found in the soluble fraction and was purified using nickel-nitrilotriacetic acid (Ni-NTA) column chromatography. The protein was further purified by Superdex 75 size exclusion column (SEC) chromatography. MERS1 mutants were made using the Quikchange mutagenesis protocol and expressed and purified as per the WT protein.
FP experiments were performed using a PanVera Beacon 2000 FP system at 25°C ([Lundblad et al. 1996]). For the experiments, purified proteins were titrated into 0.990 mL buffer composed of 25 mM Tris HCl pH 7.5, 5% (v/v) glycerol and 50 mM NaCl and containing 1 nM (final concentration) fluoresceintly labeled RNA substrate, 5′-GAGAGGGGGUU-3′, or DNA, 5′-GTGAGTACTCAC-3′. Data were fit using KaleidaGraph. Each binding curve is a representative curve from two to three technical replicates. Mutant RNA sites tested were 5′-AAGAGGGGGUU-3′ (Supplemental Fig. S2), 5′-GGGAGGGGGUU-3′, 5′-GAAAGGGGGUU-3′, 5′-GAGGGGGGGUU-3′, 5′-GAGAAGGGGUU-3′, 5-GAGAGAGGGUU-3′, 5′-GAGAGGAGGUU-3′ and 5′-GAGAGGGAGUU-3′.

[2] = test system: T. brucei MERS1 (residues 37–395); test: FP peptide binding to MERS1; parameters: species or system Trypanosoma brucei; details: 25 mM Tris HCl pH 7.5, 5% (v/v) glycerol, 150 mM NaCl, 1 nM fluoresceinated peptide (Fig. 4B)
From the text: We considered that the bound helix provided from crystal packing might mimic a portion of MERS2 or MERS3 that interacts with MERS1. Thus, using the MERS1-peptide contacts we derived a consensus MERS1-peptide interacting motif, (M/L)XXALXXEL and probed the MERS2 and MERS3 sequences for similar motifs. While no homology was found between the sequence and that of MERS3, one strong match for the motif was located within the central PPR motif region of MERS2 (residues 394–402). This region is predicted to be helical and contain a PPR motif in MERS2. Attempts to purify MERS2 or a MERS2 truncation containing this PPR motif for binding analyses, however, were unsuccessful. Thus, we obtained a fluoresceinated peptide encompassing this MERS2 region, F-[…] (where underlined residues correspond to the peptide consensus residues) and utilized this peptide in FP binding studies. […] However, to test whether helical residues observed in the crystal to make contact to MERS1 are involved in binding, we obtained a fluoresceintated peptide in which the first leucine and the glutamic acid in the helix were substituted to prolines (F-[…]).
For structural studies, the nucleotides encoding residues 37–395 of MERS1 were cloned into pET15b between the BamHI and NdeI restriction sites. […]

MERS1 [3] = target: T1, MERS1 (Trypanosoma brucei brucei TREU927, UniProt B6SBM0 37-395); test: fluorescence polarization; FP: 25 mM Tris HCl pH 7.5, 50 mM NaCl, 5% (v/v) glycerol, 1 nM labeled RNA or DNA, 25 C; details: protein: recombinant, tags: N-terminal His tag (pET15b, linker LVPRGSM); for Kd: single-stranded
T1 sequence: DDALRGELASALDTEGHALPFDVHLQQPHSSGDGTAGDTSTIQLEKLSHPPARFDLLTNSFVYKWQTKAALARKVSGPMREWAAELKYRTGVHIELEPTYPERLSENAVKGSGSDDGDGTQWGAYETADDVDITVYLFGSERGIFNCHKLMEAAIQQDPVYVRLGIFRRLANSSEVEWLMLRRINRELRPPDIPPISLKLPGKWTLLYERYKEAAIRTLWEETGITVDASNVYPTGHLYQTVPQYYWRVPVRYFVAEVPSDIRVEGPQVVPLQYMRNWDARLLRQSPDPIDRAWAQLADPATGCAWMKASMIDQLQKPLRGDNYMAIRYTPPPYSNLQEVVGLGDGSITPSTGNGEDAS

[4] = target: T2, T. brucei MERS1(37–395), his-tagged (Trypanosoma brucei brucei TREU927, UniProt B6SBM0 37-395); test: fluorescence polarisation; purified MERS1 titrated into 1 nM fluoresceinated peptide; 25 mM Tris HCl pH 7.5, 5% (v/v) glycerol, 150 mM NaCl; details: both partners purified
T2 construct: MERS1, Trypanosoma brucei, 395 residues; A selenomethionine-substituted form was used for phasing of the GTP crystal; also called mitochondrial edited mRNA stability factor 1; WT MERS1; source: E. coli C41(DE3), pET15b, purified (Ni-NTA, Superdex 75 SEC); not shown: His tag, N-terminal, kept
T2 sequence: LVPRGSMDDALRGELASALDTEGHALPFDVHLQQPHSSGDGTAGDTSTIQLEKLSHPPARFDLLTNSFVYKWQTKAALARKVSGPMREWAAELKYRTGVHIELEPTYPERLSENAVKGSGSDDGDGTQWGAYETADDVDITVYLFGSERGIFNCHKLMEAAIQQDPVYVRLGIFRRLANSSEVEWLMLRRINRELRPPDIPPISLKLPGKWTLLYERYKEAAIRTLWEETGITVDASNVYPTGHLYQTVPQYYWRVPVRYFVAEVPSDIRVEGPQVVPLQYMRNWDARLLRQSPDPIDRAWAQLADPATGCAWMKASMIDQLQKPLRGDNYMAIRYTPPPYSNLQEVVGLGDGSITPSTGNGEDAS

MERS1 [5] = target: T1, MERS1; test: X-ray crystallography; 2.60 A; four nucleotides resolved per subunit; FP: 25 mM Tris HCl pH 7.5, 50 mM NaCl, 5% (v/v) glycerol, 1 nM labeled RNA or DNA, 25 C; details: protein: recombinant; tags: N-terminal His tag (pET15b, linker LVPRGSM); single-stranded
MERS1 [6] = target: T1, MERS1; test: fluorescence polarization; Results text prints the 12-mer; Methods and Fig. 5 print this 11-mer; FP: 25 mM Tris HCl pH 7.5, 50 mM NaCl, 5% (v/v) glycerol, 1 nM labeled RNA or DNA, 25 C; details: protein: recombinant; tags: N-terminal His tag (pET15b, linker LVPRGSM); single-stranded

5′-GAGAGAGGGUU-3′ (RNA, backbone not given here)
Binding to MERS1, result in words [1]: did not bind saturably

5′-GAGAGGAGGUU-3′ (RNA, backbone not given here)
Binding to MERS1, result in words [1]: did not bind saturably

5′-GAGAGGGAGUU-3′ (RNA, backbone not given here)
Binding to MERS1, result in words [1]: did not bind saturably

5′-GAGAGGGGGGUU-3′: RNA binding site; also used for the MERS1–RNA crystal structure (RNA, backbone not given here)
Kd ([1]; PanVera Beacon 2000, 25°C, 1 nM fluoresceinated RNA, MERS1 titrated, ± standard error, representative of at least three technical replicates (Fig. 5B)): 0.04 ± 0.0009 µM

5′-GAGAGGGGGUU-3′: fluoresceintly labeled RNA substrate (RNA, backbone not given here; fluorescein label)
Binding to MERS1, result in words [1]: binds MERS1 with high affinity

5′-GTGAGTACTCAC-3′: DNA site used as comparison in FP binding (DNA, backbone and methylation of C not given here; further chemistry not fully specified) [reference compound]
Binding to MERS1, result in words [1]: essentially no binding | Binding to MERS1, result in words ([1]; listed as DNA): no binding

F-MSNNALDRLINKQKPKVPPRNDVVSESVSN [another fluoresceinated peptide that lacked the consensus residues, reference compound]
Peptide binding to MERS1, result in words [2]: failed to interact

F-SVSKQAVCLMERHLRRVPGARRNELKVAPSKPLKER [peptide in which the first leucine and the glutamic acid in the helix were substituted to prolines]
Peptide binding to MERS1, result in words [2]: only weak binding

GAAAGGGGGUU (ssRNA) [RNA G3A]
Kd (MERS1 [3]; label: fluorescein): 0.078 ± 0.004 µM

B1: fluoresceinated MERS2 peptide F-SVSKQAVCLMERHLRRVPGARRNELKVALSKELKER (peptide)
peptide: fluorescein-SVSKQAVCLMERHLRRVPGARRNELKVALSKELKER
notes: MERS2, T. brucei, 946 residue pentatricopeptide repeat protein; limits worked out from that motif; also called MER2 peptide
Kd [4]: 2.5 µM

B2: DNA control (dsDNA)
DNA 1: GTGAGTACTCAC
DNA 2: GTGAGTACTCAC
binding result (MERS1 [3]; label: fluorescein, self-complementary 12-mer, blunt if duplex): no binding

GGGAGGGGGUU (ssRNA) [RNA A2G]
Kd (MERS1 [3]; label: fluorescein): 0.048 ± 0.0009 µM

GAGAGGGGGGUU (ssRNA) [RNA 12-mer (crystal)]
binding result (MERS1 [5]): binds

GAGAGGGGGUU (ssRNA) [WT RNA site (11-mer, FP)]
Kd (MERS1 [6]): 0.04 ± 0.0009 µM

GAGAAGGGGUU (ssRNA) [RNA G5A]
Kd (MERS1 [3]; label: fluorescein): 0.043 ± 0.005 µM

GAGGGGGGGUU (ssRNA) [RNA A4G]
Kd (MERS1 [3]; label: fluorescein): 0.047 ± 0.005 µM

AAGAGGGGGUU (ssRNA) [RNA G1A]
Kd (MERS1 [3]; label: 5' fluorescein): 0.039 ± 0.004 µM
